Measured values from US9273003B2, “Methods of treating lymphoma and rheumatoid arthritis with cyclopentyl (2S)-cyclohexyl[({6-[3-(hydroxyamino)-3-oxopropyl]pyridin-3-yl}methyl)amino]acetate” (GlaxoSmithKline Intellectual Property Development Limited, priority 2006, dated 2016).
Like-named read-outs stand apart in the source and are kept apart here.

Experiments:
[1] = target: histone deacetylase activity (HeLa nuclear extract); experiment: HDAC fluorescent activity assay (Fluor de Lys, Biomol); assay type: biochemical
Procedure: The ability of compounds to inhibit histone deacetylase activities was measured using the commercially available HDAC fluorescent activity assay from Biomol. In brief, the Fluor de Lys™ substrate, a lysine with an epsilon-amino acetylation, is incubated with the source of histone deacetylase activity (HeLa nuclear extract) in the presence or absence of inhibitor. Deacetylation of the substrate sensitises the substrate to Fluor de Lys™ developer, which generates a fluorophore. Thus, incubation of the substrate with a source of HDAC activity results in an increase in signal that is diminished in the presence of an HDAC inhibitor.
Data are expressed as a percentage of the control, measured in the absence of inhibitor, with background signal being subtracted from all samples, as follows: % activity=[(S^i−B)/(S^o−B)]×100 where S^i is the signal in the presence of substrate, enzyme and inhibitor, S^o is the signal in the presence of substrate, enzyme and the vehicle in which the inhibitor is dissolved, and B is the background signal measured in the absence of enzyme.
(§1) IC50 values were determined by non-linear regression analysis, after fitting the results of eight data points to the equation for sigmoidal dose response with variable slope (% activity against log concentration of Compound), using Graphpad Prism software.
Histone deacetylase activity from crude nuclear extract derived from HeLa cells was used for screening. The preparation, purchased from 4C (Seneffe, Belgium), was prepared from HeLa cells harvested whilst in exponential growth phase. The nuclear extract was prepared according to the methodology described by J. D. Dignam, Nucl. Acid. Res., 1983, 11, 1475-1489, snap frozen in liquid nitrogen and stored at −80° C. The final buffer composition was 20 mM Hepes, 100 mM KCl, 0.2 mM EDTA, 0.5 mM DTT, 0.2 mM PMSF and 20% (v/v) glycerol.

HeLa cells = experiment: HeLa cell inhibition assay (sulphorhodamine B cell viability); assay type: cell-based; details: Homo sapiens, IC50 allocated to ranges
Procedure: HeLa cells growing in log phase were harvested and seeded at 1000 cells/well (200 μl final volume) into 96-well tissue culture plates. Following 24 h of cell growth cells were treated with compounds (final concentration of 20 μM). Plates were then re-incubated for a further 72 h before a sulphorhodamine B (SRB) cell viability assay was conducted according to the methodology described by Skehan et al, J. Natl. Canc. Inst., 1990, 82, 1107-1112.
Data were expressed as a percentage inhibition of the control, measured in the absence of inhibitor, as follows:— % inhibition=100−[(S^i/S^o)×100] where S^i is the signal in the presence of inhibitor and S^o is the signal in the presence of DMSO.
as §1

U937 cells = experiment: U937 cell inhibition assay (WST-1 cell viability); assay type: cell-based; details: for IC50: Homo sapiens, U-937
Procedure: (§2) Cancer cell lines (U937 and HUT) growing in log phase were harvested and seeded at 1000-2000 cells/well (100 μl final volume) into 96-well tissue culture plates. Following 24 h of growth cells were treated with Compound. Plates were then re-incubated for a further 72-96 h before a WST-1 cell viability assay was conducted according to the suppliers (Roche Applied Science) instructions.
(§3) Data were expressed as a percentage inhibition of the control, measured in the absence of inhibitor, as follows: % inhibition=100−[(S^i/S^o)×100] where S^i is the signal in the presence of inhibitor and S^o is the signal in the presence of DMSO.
(§4) Dose response curves were generated from 8 concentrations (top final concentration 10 μM, with 3-fold dilutions), using 6 replicates.
(§5) IC50 values were determined by non-linear regression analysis, after fitting the results to the equation for sigmoidal dose response with variable slope (% activity against log concentration of Compound), using Graphpad Prism software.

HUT78 cells = experiment: HUT cell inhibition assay (WST-1 cell viability); assay type: cell-based; details: Homo sapiens
Procedure: as §2, §3, §4, §5

[2] = IC50 allocated to ranges, read-out: HDAC activity
[3] = U937 cells, IC50 allocated to ranges, read-out: U937 activity
[4] = HUT78 cells, IC50 allocated to ranges, read-out: HUT activity

Row | Structure (SMILES) | IC50 [1, 2] | IC50 (HeLa cells) | IC50 (U937 cells; [3]) | IC50 ([1]; read-out: Inhibition of HDAC (IC50-nM)) | IC50 (U937 cells; U937 monocytic cell line, read-out: Inhibition of U937 cell proliferation (IC50-nM)) | IC50 (HUT78 cells; [4]) | fold more potent as anti-proliferative agent than belinostat (U937 cells; monocytic cell line U937, versus belinostat) | IC50 (HUT78 cells; HUT78 non-monocytic cell line, read-out: Inhibition of HUT78 cell proliferation (IC50-nM))
1 | O=C(/C=C/c1cccc(C(=O)N[C@H](C(=O)OC2CCCC2)C2CCCCC2)c1)NO [Example 5, Cyclopentyl (2S)-cyclohexyl({3-[(1E)-3-(hydroxyamino)-3-oxoprop-1-en-1-yl]benzoyl}amino)acetate] | < 100 nM | 331 to 3300 nM | 331 to 3300 nM | – | – | 331 to 3300 nM | – | –
2 | CC(C)C[C@@H](NCc1ccc(/C=C/C(=O)NO)cc1)C(=O)OC1CCCC1 [Example 18, Cyclopentyl N-{4-[(1E)-3-(hydroxyamino)-3-oxoprop-1-en-1-yl]benzyl}-D-leucinate] | 101 to 1000 nM | > 3300 nM | 331 to 3300 nM | – | – | 331 to 3300 nM | – | –
3 | O=C(/C=C/c1ccc(CN[C@@H](C(=O)OC2CCCC2)C2CCCCC2)cc1)NO [Example 19, Cyclopentyl (2R)-cyclohexyl({4-[(1E)-3-(hydroxyamino)-3-oxoprop-1-en-1-yl]benzyl}amino)acetate] | 101 to 1000 nM | > 3300 nM | 331 to 3300 nM | – | – | > 3300 nM | – | –
4 | COC(=O)[C@H](Cc1c[nH]c2ccccc12)NCc1ccc(/C=C/C(=O)NO)cc1 [Example 29, Methyl N-{4-[(1E)-3-(hydroxyamino)-3-oxoprop-1-en-1-yl]benzyl}-L-tryptophanate] | – | 331 to 3300 nM | 331 to 3300 nM | – | – | 331 to 3300 nM | – | –
5 | CC(C)(C)OC[C@@H](NCc1ccc(/C=C/C(=O)NO)cc1)C(=O)OC1CCCC1 [Example 20, Cyclopentyl O-tert-butyl-N-{4-[(1E)-3-(hydroxyamino)-3-oxoprop-1-en-1-yl]benzyl}-D-serinate] | 101 to 1000 nM | > 3300 nM | < 330 nM | – | – | 331 to 3300 nM | – | –
6 | O=C(/C=C/c1cccc(CN[C@H](C(=O)OC2CCCC2)C2CCCCC2)c1)NO [Example 12, Cyclopentyl (2S)-cyclohexyl({3-[(1E)-3-(hydroxyamino)-3-oxoprop-1-en-1-yl]benzyl}amino)acetate] | 101 to 1000 nM | > 3300 nM | 331 to 3300 nM | – | – | 331 to 3300 nM | – | –
7 | CC(C)C[C@H](NS(=O)(=O)c1cccc(/C=C/C(=O)NO)c1)C(=O)OC1CCCC1 [Example 3, Cyclopentyl N-({3-[(1E)-3-(hydroxyamino)-3-oxoprop-1-en-1-yl]phenyl}sulfonyl)-L-leucinate] | < 100 nM | 331 to 3300 nM | 331 to 3300 nM | – | – | 331 to 3300 nM | – | –
8 | CC(C)C[C@H](NCc1ccc(CCC(=O)NO)cc1)C(=O)OCCN1CCOCC1 [Example 35, 2-Morpholin-4-ylethyl N-{4-[3-(hydroxyamino)-3-oxopropyl]benzyl}-L-leucinate] | > 1000 nM | > 3300 nM | < 330 nM | – | – | 331 to 3300 nM | – | –
9 | O=C(/C=C/c1cccc(C(=O)N[C@H](C(=O)OC2CCCC2)c2ccccc2)c1)NO [Example 6, Cyclopentyl (2S)-({3-[(1E)-3-(hydroxyamino)-3-oxoprop-1-en-1-yl]benzoyl}amino)(phenyl)acetate] | 101 to 1000 nM | > 3300 nM | 331 to 3300 nM | – | – | 331 to 3300 nM | – | –
10 | CC(C)C[C@H](NC(C)c1ccc(CCC(=O)NO)cc1)C(=O)OC(C)(C)C (stereo partly drawn) [Example 86, tert-Butyl N-(1-{4-[3-(hydroxyamino)-3-oxopropyl]phenyl}ethyl)-L-leucinate] | 101 to 1000 nM | – | < 330 nM | – | – | 331 to 3300 nM | – | –
11 | O=C(/C=C/c1ccc(CN[C@H](C(=O)OC2CCCC2)C2CCCCC2)cn1)NO [Example 53, Cyclopentyl (2S)-cyclohexyl[({6-[(1E)-3-(hydroxyamino)-3-oxoprop-1-en-1-yl]pyridin-3-yl}methyl)amino]acetate] | < 100 nM | – | < 330 nM | – | – | < 330 nM | – | –
12 | O=C(CCc1cccc(CN[C@H](C(=O)OC2CCCC2)C2CCCCC2)c1)NO [Example 50, Cyclopentyl (2S)-cyclohexyl({3-[3-(hydroxyamino)-3-oxopropyl]benzyl}amino)acetate] | 101 to 1000 nM | – | 331 to 3300 nM | – | – | 331 to 3300 nM | – | –
13 | CC(C)(C)OC(=O)[C@@H](NCc1ccc(CCC(=O)NO)nc1)c1ccccc1 [Example 64, tert-Butyl (2S)-[({6-[3-(hydroxyamino)-3-oxopropyl]pyridin-3-yl}methyl)amino](phenyl)acetate] | 101 to 1000 nM | – | 331 to 3300 nM | – | – | 331 to 3300 nM | – | –

More lines, main results first:

Row | IC50 [1, 2] | IC50 (HeLa cells) | IC50 (U937 cells; [3]) | IC50 ([1]; read-out: Inhibition of HDAC (IC50-nM)) | IC50 (U937 cells; U937 monocytic cell line, read-out: Inhibition of U937 cell proliferation (IC50-nM)) | Structure (SMILES) | IC50 (HUT78 cells; [4]) | fold more potent as anti-proliferative agent than belinostat (U937 cells; monocytic cell line U937, versus belinostat) | IC50 (HUT78 cells; HUT78 non-monocytic cell line, read-out: Inhibition of HUT78 cell proliferation (IC50-nM))
14 | < 100 nM | 331 to 3300 nM | < 330 nM | – | – | CCOC(=O)[C@@H](NCc1ccc(/C=C/C(=O)NO)cc1)C1CCCCC1 [Example 21, Ethyl (2S)-cyclohexyl({4-[(1E)-3-(hydroxyamino)-3-oxoprop-1-en-1-yl]benzyl}amino)acetate] | < 330 nM | – | –
15 | < 100 nM | 331 to 3300 nM | < 330 nM | 59 nM | 5 nM | O=C(/C=C/c1ccc(CN[C@H](C(=O)OC2CCCC2)C2CCCCC2)cc1)NO [Example 14, Cyclopentyl (2S)-cyclohexyl({4-[(1E)-3-(hydroxyamino)-3-oxoprop-1-en-1-yl]benzyl}amino)acetate] | < 330 nM | 30 fold | 230 nM
16 | 101 to 1000 nM | 331 to 3300 nM | < 330 nM | – | – | CC(C)C[C@H](NCc1ccc(CCC(=O)NO)cc1)C(=O)OC1CC2CCC1C2 (stereo partly drawn) [Example 36, Bicyclo[2.2.1]hept-2-yl N-{4-[3-(hydroxyamino)-3-oxopropyl]benzyl}-L-leucinate] | < 330 nM | – | –
17 | – | > 3300 nM | < 330 nM | – | – | CC(C)(C)OC[C@H](NCc1ccc(CNCc2cccc(/C=C/C(=O)NO)c2)cc1)C(=O)OC1CCCC1 [Example 74, Cyclopentyl O-tert-butyl-N-{4-[({3-[(1E)-3-(hydroxyamino)-3-oxoprop-1-en-1-yl]benzyl}amino)methyl]benzyl}-L-serinate] | 331 to 3300 nM | – | –
18 | < 100 nM | 331 to 3300 nM | < 330 nM | – | – | CC(C)C[C@H](NCc1ccc(/C=C/C(=O)NO)cc1)C(=O)OC1CCCC1 [Example 15, Cyclopentyl N-{4-[(1E)-3-(hydroxyamino)-3-oxoprop-1-en-1-yl]benzyl}-L-leucinate] | < 330 nM | – | –
19 | 101 to 1000 nM | 331 to 3300 nM | < 330 nM | – | – | CC(C)C[C@H](NCc1ccc(CCC(=O)NO)cc1)C(=O)OC1Cc2ccccc2C1 [Example 37, 2,3-Dihydro-1H-inden-2-yl N-{4-[3-(hydroxyamino)-3-oxopropyl]benzyl}-L-leucinate] | < 330 nM | – | –
20 | < 100 nM | 331 to 3300 nM | < 330 nM | – | – | O=C(/C=C/c1ccc(CN[C@H](C(=O)OC2CC3CCC2C3)C2CCCCC2)cn1)NO (stereo partly drawn) [Example 58, Bicyclo[2.2.1]hept-2-yl (2S)-cyclohexyl[({6-[(1E)-3-(hydroxyamino)-3-oxoprop-1-en-1-yl]pyridin-3-yl}methyl)amino]acetate] | < 330 nM | – | –
21 | < 100 nM | 331 to 3300 nM | < 330 nM | – | – | C=CCOC(=O)[C@@H](NCc1ccc(/C=C/C(=O)NO)cc1)C1CCCCC1 [Example 25, Allyl (2S)-cyclohexyl({4-[(1E)-3-(hydroxyamino)-3-oxoprop-1-en-1-yl]benzyl}amino)acetate] | 331 to 3300 nM | – | –
